From publication PMC10900488, “Synthesis and Evaluation of (Bis)benzyltetrahydroisoquinoline Alkaloids as Antiparasitic Agents” (JACS Au, 2024)

Columns and labels:
L. infantum amastigotes = test: Antiamastigote assay (L. infantum), ex vivo intracellular model of mice macrophages, microscopy; format: cell-based, Leishmania (L.) infantum; details: Leishmania infantum, Peritoneal macrophage, 96 h, ± SD, intracellular, peritoneal macrophages, read-out: L. infantum IC50 amastigotes
Experimental: Table 1 depicts the antileishmanial (L. infantum) activity evaluation performed against both the amastigote form (evaluated microscopically using an ex vivo intracellular model of mice macrophages) and the promastigote one (using an MTT colorimetric method).[32],[33] The cytotoxicity was evaluated against NCTC cells using an MTT colorimetric method and the selectivity index was determined using the ratio between the CC50 values (NCTC cells) and the IC50 values (amastigotes).[32] […] With respect to the substituents on the C ring, larger, hydrophobic groups conferred greater bioactivity (e.g., 9b–d), whereas small, hydrophilic groups such as a hydroxyl group afford modest to poor bioactivity.
Leishmania (L.) infantum (MHOM/BR/1972/LD) amastigotes were obtained from golden hamsters (Mesocricetus auratus) spleens following 60-70 days of infection via differential centrifugation. The Stauber method was used to determine the number of parasites.12 […]
Peritoneal macrophages were obtained via washing the peritoneal cavity of BALB/c mice with 10% foetal calf serum supplemented RPMI-1640 medium (pH 7.2). The macrophages were maintained in a humidified incubator at 37 °C and with 5% CO2.
(§1) Biological activity assays […]
Antiamastigote Assay (L. infantum)
Peritoneal macrophages (1 × 10^5/well) were added to a 16-well slide chambers (NUNC) and incubated with 5% CO2 at 37 °C. The cells were subsequently infected with L. infantum amastigotes (10:1 amastigotes/macrophage) for 24 h. Treatment of the cells with selected compounds (serially diluted 1.2 to 150 μM) was performed in a humidified incubator for 96 h at 37 °C and with 5% CO2. Untreated cells were used as a negative control and miltefosine was used as a standard drug. The treated cells were fixed on slides with methanol, stained with Giemsa and observed under a light microscope.13 The infection index was used in order to determine the half inhibitory concentration (IC50) (no. infected macrophages × no. amastigotes / total no. […]

[1] = tested on: L. mexicana promastigotes; test: Growth studies, 24 h promastigote culture; format: cell-based, Leishmania (L.) mexicana
Experimental: Preliminary investigations into the mechanism of action for compounds (S)-9a, (S)-9b and (S,R)-11 were carried out using L. mexicana promastigotes. Light microscopy-based techniques were employed to further explore compound activity in a different, related Leishmania species. […] A solvent-only control using 0.1% (v/v) DMSO led to no significant effects. Cell cultures were examined by light microscopy to identify any morphological changes resulting from compound treatment (Figure 2B). […] Cells treated with the BI and BBI compounds develop a changed morphology with a spherical cell body or shortened flagellum. This effect is observed in 25% of the population for compound (S)-9a, to a greater extent (66%) for (S)-9b, and 27% for compound (S,R)-11. An abnormal number and position of Ks and Ns were often observed, with Ks and Ns sometimes less well-defined by Hoechst 33342 staining.
NCTC cells (6 × 10^4/well) were added to a 96-well plate. Treatments of the cells with selected compounds (serially diluted 1.5 to 200 μM) was performed in a humidified incubator for 96 h at 37 °C and with 5% CO2.
The MTT colorimetric method was used to determine the 50% cytotoxic concentration (CC50) and the selectivity index (CC50 against NCTC cells/IC50 against amastigotes).15 […]
[…] […] Statistical significance was derived from a two-tailed T-test.
The Graph Pad Prism 5 software was used to perform sigmoid dose-response curves for the determination of […]
[…] At 6 h and 24 h post-treatment, a 1 mL aliquot was taken for imaging. The cell cycle experiment was preformed twice independently.
Generation of mNG::RAD51 tagged cell line
The single-stranded DNA-binding protein RAD51, associated with DNA Repair, LmxM.28.0550 was tagged with endogenous fluorescent protein mNeonGreen (mNG) at the N-terminus. […]
Primers for constructs and sgRNA were designed using LeishGEdit (http://www.leishGEdit.net).
PCR was at 94 °C for 5 min, followed by 35 cycles at 94 °C (15 sec), 65 °C (15 sec), 72 °C (2 min) then finally 72 °C (1 min). […]

T. cruzi trypomastigotes = test: Antitrypomastigote assay (T. cruzi), resazurin; format: cell-based, Trypanosoma (T.) cruzi; details: Trypanosoma cruzi, 24 h, ± SD, resazurin, read-out: T. cruzi IC50 trypomastigotes
Experimental: T. cruzi also assumes several cell morphologies during its lifecycle, which differ between the insect vector and mammalian host. In the latter environment, the parasite transitions between extracellular bloodstream trypomastigotes and intracellular amastigotes; both forms are clinically relevant, particularly during the acute stage of Chagas disease.[34] In this work, antitrypanosomal activity was tested against both the amastigote form (evaluated microscopically using an ex vivo intracellular model using mice macrophages) and the trypomastigote form (using the resazurin in vitro assay).[33],[35] […] In silico predictions of pharmacokinetic profiles were carried out using the SwissADME webtool (see the Supporting Information for details).[36] […]
[…] Cultivation was performed in 2% fetal calf serum supplemented RPMI-1640 medium.
The trypomastigotes were maintained in a humidified incubator at 37 °C and with 5% CO2. […]
as §1
The half inhibitory concentration (IC50) was determined from a sigmoidal regression of the concentration-response curves generated in GraphPadPrism7. […]
Treatment of the cells with selected compounds (serially diluted 1.2 to 150 μM) was performed in a humidified incubator in RPMI 1640 medium for 24 h at 37 °C and with 5% CO2. Resazurin (0.011% in PBS) was added subsequently to verify parasite viability. Benznidazole was used as a standard drug. The optical density was determined at 570 nm using the FilterMax F5 (Molecular Devices). […]

**Q.** For `COc1cc2c(cc1OC)[C@H](Cc1ccc(OC)c(OCc3ccccc3)c1)N(C)CC2` [(S)-9b], which IC50 (L. infantum amastigotes) is on record?
**A.** The IC50 was 26.7 ± 2 µM.

**Q.** What about the “concentration sufficient to inhibit growth over 24 h” value [1] of the same molecule?
**A.** The value was 50 µM.

**Q.** And the IC50 (T. cruzi trypomastigotes)?
**A.** Its IC50 is 57.7 ± 2.3 µM.

**Q.** For `COc1cc2c(cc1OC)[C@@H](Cc1ccc(Oc3cc(C[C@H]4c5cc(OC)c(OC)cc5CCN4C)ccc3OC)cc1)N(C)CC2` [(S,R)-11, (−)-O,O′-dimethylgrisabine], which IC50 (L. infantum amastigotes) is on record?
**A.** The IC50 was greater than 150 µM.

**Q.** What about the “potency in growth inhibition relative to (S)-9a and (S)-9b” value [1] of the same molecule?
**A.** The value was 10 fold.

**Q.** What about the IC50 (T. cruzi trypomastigotes) of the same molecule?
**A.** The IC50 was 2.6 ± 2.9 µM.

**Q.** What does the source list for `COc1cc2c(cc1OC)[C@H](Cc1ccc(Br)cc1)N(C)CC2` [(S)-9a]?
**A.** IC50 (L. infantum amastigotes): 13.3 ± 0.9 µM; concentration sufficient to inhibit growth over 24 h [1]: 50 µM; IC50 (T. cruzi trypomastigotes): 14.4 ± 5.5 µM
